Drawing on patent US10329282B2, “Rho-associated protein kinase inhibitor, pharmaceutical composition comprising the same, as well as preparation method and use thereof” (Beijing Tide Pharmaceutical Co., Ltd., priority 2017, dated 2019), this text covers IC50 for 30 molecules.

Sequence of ROCK2 (O75116 1-553): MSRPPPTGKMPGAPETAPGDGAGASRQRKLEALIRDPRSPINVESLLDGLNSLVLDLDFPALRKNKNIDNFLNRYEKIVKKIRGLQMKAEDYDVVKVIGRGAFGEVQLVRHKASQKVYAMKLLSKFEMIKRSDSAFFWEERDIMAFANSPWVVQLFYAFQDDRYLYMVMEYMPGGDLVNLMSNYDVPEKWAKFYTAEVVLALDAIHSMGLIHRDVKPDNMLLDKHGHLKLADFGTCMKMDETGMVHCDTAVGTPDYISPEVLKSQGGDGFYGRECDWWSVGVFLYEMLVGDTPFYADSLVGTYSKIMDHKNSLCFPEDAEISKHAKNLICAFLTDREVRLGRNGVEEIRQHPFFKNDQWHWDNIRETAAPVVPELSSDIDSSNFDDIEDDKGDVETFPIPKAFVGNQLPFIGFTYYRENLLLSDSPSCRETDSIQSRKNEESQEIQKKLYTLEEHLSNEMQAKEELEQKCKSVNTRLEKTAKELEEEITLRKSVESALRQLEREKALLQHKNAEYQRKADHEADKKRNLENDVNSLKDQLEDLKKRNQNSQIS

For the assay, the target named is ROCK2 (Homo sapiens (Human), UniProt O75116). In words: ROCK2 kinase IC50 assay (CISBIO HTRF KinEASE-STK S2 kit). It is filed as biochemical. The following applies: ROCK2 from Carna Biosciences, 2 h incubation at room temperature. How it is done:
The kinase IC50 was determined by a commercialized CISBIO kinase detection kit, HTRF KinEASE-STK S2 kit (62ST2PEC). ROCK2 (01-119) employed in the reaction was purchased from Carna Biosciences.
Before the assay, the following working solutions as needed were formulated with corresponding reagents according to the instruction of the kinase detection kit: 1×kinase buffer, 5×STK-52 substrate working solution (1.5 μM) and 5×ATP working solution (1.5 μM), 5×ROCK2 kinase working solution, 4×Streptavidin-XL665 working solution, and 4×STK-Ab-Cryptate 2 detection solution. Then the assay was performed according to the following procedure.
A solution of a compound at a concentration of 10000 nM was prepared with the 1×kinase buffer containing 2.5% DMSO. Gradient dilution of the solution of the compound was performed with the kinase buffer containing DMSO, so as to obtain solutions of a test compound at 9 different concentrations. In addition to wells of test compounds, a positive well (containing all the reagents except the compound) and a negative well (containing all the reagents except the test compound and kinase) were set. Except for the control wells (positive and negative wells), a solution of a test compound (4 μL) was added to each of the reaction wells, and a solution of 2.5% DMSO was added to the control wells. Then the substrate (2 μM, i.e., 2 μL 5×STK-S2 substrate working solution) was added to each of the reaction wells. The 5×ROCK2 kinase working solution (2 μL, containing 1.4 ng ROCK2 kinase) was added to each of the reaction wells except for the negative well, the volume of which was made up with the 1×kinase buffer (2 μL). The 5×ATP working solution (2 μL) was added to each of the reaction wells, and the mixtures were incubated at room temperature for 2 hours. After the kinase reaction was complete, the 4×Streptavidin-XL665 working solution was added to each of the reaction wells, the solutions were mixed, followed by immediate addition of the 4×STK-Ab-Cryptate 2 detection solution (5 μL), and the mixtures were incubated at room temperature for 1 hour. The fluorescence signal was read on ENVISION (Perkinelmer) (excitation wavelength: 320 nm, and emission wavelength: 665 nm and 615 nm). The inhibitory rate in each well was calculated based on the fluorescence intensity value: ER (Emission Ratio)=(fluorescence intensity at 665 nm/fluorescence intensity at 615 nm); inhibitory rate=(ERpositive−ERtest compound) (ERpositive−ERnegative)*100%. Curves were plotted and fitted to obtain the median inhibitory concentration (IC50) of each teat compound with the PRISM 5.0 software.
For orientation: In TR-FRET formats the signal depends on donor and acceptor labels being close together.
For `CNC(=O)c1cc2ccc(-c3nccc(Nc4ccc(-c5cn[nH]c5)cc4)n3)cc2[nH]1` [TDI01296, 6-(4-((4-(1H-pyrazol-4-yl)phenyl)amino)pyrimidin-2-yl)-N-methyl-1H-indole-2-carboxamide], the IC50 is 0.211 µM.
The same measure for `O=C(NC1CC1)c1cc2ccc(-c3nccc(Nc4ccc5[nH]ncc5c4)n3)cc2[nH]1` [TDI01151, 6-(4-((1H-indazol-5-yl)amino)pyrimidin-2-yl)-N-cyclopropyl-1H-indole-2-carboxamide]: 0.045 µM; for `CN(C(=O)c1cc2ccc(-c3nccc(Nc4ccc(-c5cn[nH]c5)cc4)n3)cc2[nH]1)C1CCC1` [TDI01420]: 0.477 µM; for `C[C@H](CN)NC(=O)c1cc2ccc(-c3nccc(Nc4ccc(-c5cn[nH]c5)cc4)n3)cc2[nH]1` [TDI01855, (R)-6-(4-((4-(1H-pyrazol-4-yl)phenyl)amino)pyrimidin-2-yl)-N-(1-aminopropan-2-yl)-1H-indole-2-carboxamide]: 0.147 µM.
Regarding `O=C(NC1CCOC1)c1cc2ccc(-c3nccc(Nc4ccc(-c5cn[nH]c5)cc4)n3)cc2[nH]1` (stereo not drawn) [TDI01337, 6-(4-((4-(1H-pyrazol-4-yl)phenyl)amino)pyrimidin-2-yl)-N-(tetrahydrofuran-3-yl)-1H-indole-2-carboxamide], the IC50 came to 0.121 µM.
The same measure for `CN1CCN(C(=O)c2cc3ccc(-c4nccc(Nc5ccc(-c6cn[nH]c6)cc5)n4)cc3[nH]2)CC1` [TDI01343, (6-(4-((4-(1H-pyrazol-4-yl)phenyl)amino)pyrimidin-2-yl)-1H-indol-2-yl)(4-methylpiperazin-1-yl)methanone]: 0.436 µM; for `CC(C)NC(=O)c1cc2ccc(-c3nccc(Nc4ccc(-c5cn[nH]c5)cc4)n3)cc2[nH]1` [TDI01280, 6-(4-((4-(1H-pyrazol-4-yl)phenyl)amino)pyrimidin-2-yl)-N-isopropyl-1H-indole-2-carboxamide]: 0.094 µM; for `CCN(CC)C(=O)c1cc2ccc(-c3nccc(Nc4ccc(-c5cn[nH]c5)cc4)n3)cc2[nH]1` [TDI01332, 6-(4-((4-(1H-pyrazol-4-yl)phenyl)amino)pyrimidin-2-yl)-N,N-diethyl-1H-indole-2-carboxamide]: 0.257 µM.
`CC(C)NC(=O)c1cc2ccc(-c3nc(Nc4ccc5[nH]ncc5c4)c4ccccc4n3)cc2[nH]1` [TDI01128, 6-(4-((1H-indazol-5-yl)amino)quinazolin-2-yl)-N-isopropyl-1H-indole-2-carboxamide]: the IC50 came to 0.145 µM.
The same measure for `O=C(NC1CCCCC1)c1cc2ccc(-c3nccc(Nc4ccc5[nH]ncc5c4)n3)cc2s1` [TDI01112, 6-(4-((1H-indazol-5-yl)amino)pyrimidin-2-yl)-N-cyclohexylbenzo[b]thiophene-2-carboxamide]: 0.185 µM; for `CC(C)NC(=O)c1cc2ccc(-c3nc(Nc4ccc5[nH]ncc5c4)c4ccsc4n3)cc2[nH]1` [TDI01142, 6-(4-((1H-indazol-5-yl)amino)thieno[2,3-d]pyrimidin-2-yl)-N-isopropyl-1H-indole-2-carboxamide]: 0.225 µM.
The same measure for `CC(C)NC(=O)c1cc2ccc(-c3nccc(Nc4ccc5[nH]ncc5c4)n3)cc2s1` [TDI01104, 6-(4-((1H-indazol-5-yl)amino)pyrimidin-2-yl)-N-isopropylbenzo[b]thiophene-2-carboxamide]: 0.071 µM.
In turn, `CC(C)NC(=O)c1cc2ccc(-c3nccc(Nc4ccc5[nH]ncc5c4)n3)cc2[nH]1` [TDI01108, 6-(4-((1H-indazol-5-yl)amino)pyrimidin-2-yl)-N-isopropyl-1H-indole-2-carboxamide] gave a concentration for half-maximal inhibition (IC50) of 0.022 µM. This IC50 lies about 3.2-fold lower than the previous one.
The same measure for `CC(C)NC(=O)c1ccc2cc(-c3nccc(Nc4ccc5[nH]ncc5c4)n3)sc2c1` [TDI01106, 2-(4-((1H-indazol-5-yl)amino)pyrimidin-2-yl)-N-isopropylbenzo[b]thiophene-6-carboxamide]: 0.112 µM; for `O=C(c1cc2ccc(-c3nccc(Nc4ccc(-c5cn[nH]c5)cc4)n3)cc2[nH]1)N1CC(C(F)F)C1` [TDI01435]: 0.028 µM.
The same measure for `O=C(Nc1cnccn1)c1cc2ccc(-c3nccc(Nc4ccc5[nH]ncc5c4)n3)cc2[nH]1` [TDI01160, 6-(4-((1H-indazol-5-yl)amino)pyrimidin-2-yl)-N-(pyrazin-2-yl)-1H-indole-2-carboxamide]: 0.054 µM.
In turn, `O=C(NC1CCOCC1)c1cc2ccc(-c3nccc(Nc4ccc5[nH]ncc5c4)n3)cc2[nH]1` [TDI01291, 6-(4-((1H-indazol-5-yl)amino)pyrimidin-2-yl)-N-(tetrahydro-2H-pyran-4-yl)-1H-indole-2-carboxamide] gave an IC50 of 0.032 µM.
The same measure for `O=C(Nc1ccccn1)c1cc2ccc(-c3nccc(Nc4ccc5[nH]ncc5c4)n3)cc2[nH]1` [TDI01311, 6-(4-((1H-indazol-5-yl)amino)pyrimidin-2-yl)-N-(pyridin-2-yl)-1H-indole-2-carboxamide]: 0.465 µM.
Take `CC(CO)NC(=O)c1cc2ccc(-c3nccc(Nc4ccc5[nH]ncc5c4)n3)cc2[nH]1` (stereo not drawn) [TDI01176, 6-(4-((1H-indazol-5-yl)amino)pyrimidin-2-yl)-N-(1-hydroxypropan-2-yl)-1H-indole-2-carboxamide]: half-maximal inhibition (IC50) required 0.028 µM.
The same measure for `O=C(c1cc2ccc(-c3nccc(Nc4ccc(-c5cn[nH]c5)cc4)n3)cc2[nH]1)N1CCC2(CCNCC2)CC1` [TDI01425, (6-(4-((4-(1H-pyrazol-4-yl)phenyl)amino)pyrimidin-2-yl)-1H-indol-2-yl)(3,9-diazaspiro[5.5]undecan-3-yl)methanone]: 0.119 µM; for `CN(C)C(=O)c1cc2ccc(-c3nccc(Nc4ccc5[nH]ncc5c4)n3)cc2s1` [TDI01110, 6-(4-((1H-indazol-5-yl)amino)pyrimidin-2-yl)-N,N-dimethylbenzo[b]thiophene-2-carboxamide]: 0.422 µM.
The same measure for `O=C(c1cc2ccc(-c3nccc(Nc4ccc(-c5cn[nH]c5)cc4)n3)cc2[nH]1)N1CCC1` [TDI01330, (6-(4-((4-(1H-pyrazol-4-yl)phenyl)amino)pyrimidin-2-yl)-1H-indol-2-yl)(azetidin-1-yl)methanone]: 0.474 µM; for `CN(C(=O)c1cc2ccc(-c3nccc(Nc4ccc(-c5cn[nH]c5)cc4)n3)cc2[nH]1)c1ccncc1` [TDI01421, 6-(4-((4-(1H-pyrazol-4-yl)phenyl)amino)pyrimidin-2-yl)-N-methyl-N-(pyridin-4-yl)-1H-indole-2-carboxamide]: 0.289 µM.
For `CCNC(=O)N1Cc2ccc(-c3nccc(Nc4ccc(-c5cn[nH]c5)cc4)n3)cc2C1` [TDI01411, 5-(4-((4-(1H-pyrazol-4-yl)phenyl)amino)pyrimidin-2-yl)-N-ethylisoindoline-2-carboxamide], half-maximal inhibition (IC50) was put at 0.258 µM.
As for `CC(C)NC(=O)c1ccc2cc(-c3nccc(Nc4ccc5[nH]ncc5c4)n3)[nH]c2c1` [TDI01127, 2-(4-((1H-indazol-5-yl)amino)pyrimidin-2-yl)-N-isopropyl-1H-indole-6-carboxamide], the IC50 came out at 0.1 µM.
`CC(C)NC(=O)c1cc2ccc(-c3nc(Nc4ccc5[nH]ncc5c4)cc(OCCN(C)C)n3)cc2s1` [TDI01121, 6-(4-((1H-indazol-5-yl)amino)-6-(2-(dimethylamino)ethoxy)pyrimidin-2-yl)-N-isopropylbenzo[b]thiophene-2-carboxamide] displayed a concentration for half-maximal inhibition (IC50) of 0.47 µM.
The same measure for `CN1CCC(NC(=O)c2cc3ccc(-c4nccc(Nc5ccc(-c6cn[nH]c6)cc5)n4)cc3[nH]2)C1` (stereo not drawn) [TDI01339, 6-(4-((4-(1H-pyrazol-4-yl)phenyl)amino)pyrimidin-2-yl)-N-(1-methylpyrrolidin-3-yl)-1H-indole-2-carboxamide]: 0.147 µM; for `CC(C)NC(=O)C1COc2ccc(-c3nccc(Nc4ccc5[nH]ncc5c4)n3)cc2O1` (stereo not drawn) [TDI01103, 7-(4-((1H-indazol-5-yl)amino)pyrimidin-2-yl)-N-isopropyl-2,3-dihydrobenzo[b][1,4]dioxine-2-carboxamide]: 0.167 µM; for `O=C(Nc1ccncc1Cl)c1cc2ccc(-c3nccc(Nc4ccc(-c5cn[nH]c5)cc4)n3)cc2[nH]1` [TDI01354, 6-(4-((4-(1H-pyrazol-4-yl)phenyl)amino)pyrimidin-2-yl)-N-(3-chloropyridin-4-yl)-1H-indole-2-carboxamide]: 0.254 µM.
The same measure for `CC(C)NC(=O)N1Cc2ccc(-c3nccc(Nc4ccc5[nH]ncc5c4)n3)cc2C1` [TDI01312, 5-(4-((1H-indazol-5-yl)amino)pyrimidin-2-yl)-N-isopropylisoindoline-2-carboxamide]: 0.073 µM.

For orientation: IC50 means the concentration at which inhibition is half-maximal. Higher therefore signals lower potency.
